In US20240400606A1, “SMALL MOLECULE ACTIVATORS OF THE IMMUNE SYSTEM” (THE BOARD OF TRUSTEES OF THE UNIVERSITY OF ILLINOIS, priority 2021, published 2024):

Experiments:
MCF-7 cells = experiment: Alamar blue cellular cytotoxicity, MCF-7; type: cell-based; details: MCF-7, 72 hours
Protocol: Alamar Blue Fluorescence for Cellular Activity (IC50). Cells were seeded per well in a 96-well plate (5000 for MCF-7, 4000 for T47D, 7000 for mouse embryonic fibroblasts) and allowed to adhere before DMSO solutions of compounds were added to each well. Final concentration of DMSO in each well is 1%, final volume: 100 μL. At the end of 72 hours, Alamar Blue solution was added (10 μL of 1 mg resazurin per 10 mL PBS). After 2-4 hours incubation, fluorescence (λexcit.=555 nm, λemission.=585 nm) was measured. The fluorescence of each well was read with a SpectraMax M3 plate reader (Molecular Devices). Percent dead was determined by comparison to a 100% dead control: 100 μM Raptinal treated cells.
Whole cell cytotoxicity-MCF-7. Cell cytotoxicity was assessed to ensure compound concentrations used the whole cell assays would not kill the cells. Alamar blue cell cytotoxicity assay: 5000 cells were seeded per well in a 96-well plate and allowed to adhere before DMSO solutions of compounds were added to each well. Final concentration of DMSO in each well is 1%, with a final volume of 100 μl. […] After 2 to 4 hours of incubation, fluorescence (λexcitation=555 nm, λemission=585 nm) was measured. Percent dead was determined by comparison to a 100% dead control: 100 μM Raptinal-treated cells (FIG. 6).

SULT2B1b = SULT2B1b (Homo sapiens (Human), UniProt O00204); experiment: Coupled chromogenic SULT2B1b inhibition assay; type: biochemical; details: for IC50: coupled chromogenic in vitro assay, optimized conditions, mean±s.e.m., n=3
Protocol: Optimized Coupled Chromogenic SULT2B1b Activity Assay. For 96-well Format: Working concentrations of IMPAD1 (0.1 mg/mL in 1× activity assay buffer), PAPS (1 mM in 1× activity assay buffer), and DHEA (2.5 mM in DMSO) were prepared. Two technical replicates were assayed for each sample. Reaction mixes were prepared by mixing 10 μL PAPS stock solution, 10 μL IMPAD1 stock solution, 4 μL 2.5 mM DHEA or DMSO, and 16 μL activity assay buffer to make […] reaction mix. Amount of reaction mix was scaled accordingly to number of samples assayed. 25 μL of reaction mix was dispensed to each well. SULT2B1b was diluted to 1.5 μg/μL in protein storage buffer then down to 0.8 μg/μL in 1X activity assay buffer. 25 μL of 0.8 μg/μL SULT2B1b was added to each well. The reaction was incubated at 37° C. for 45 minutes, then quenched by addition of 30 μL of malachite green solution A, followed by addition of 30 μL of malachite green solution B. The plate was left at room temperature for 20 minutes for color stabilization, then absorbance was read at 620 nm. IMPAD1 activity control was 10 μL of 0.1 mg/mL IMPAD1 mixed with 40 μL activity assay buffer. 25 μL of the IMPAD1 dilution was added to 25 μL of 0.1 mM PAP.
Coupled Chromogenic SULT2B1b Inhibition Assay. For 96-well Format: Working stock solutions of IMPAD1 (0.1 mg/mL in 1× activity assay buffer), PAPS (1 mM in 1X activity assay buffer), compound of interest (5 mM in DMSO) and DHEA (5 mM in DMSO) were prepared. Two technical replicates were assayed for each sample. […] The reaction was incubated at 37° C. for 45 minutes, then quenched by addition of 30 μL of malachite green solution A, followed by addition of 30 μL of malachite green solution B. The plate was left at room temperature for 20 minutes for color stabilization, then absorbance was read at 620 nm. […]
Percent inhibition was calculated as: 100−[100×[(Phosphate produced per wellaverage,compound of interest−Phosphate produced per wellaverage, DMSO)/(Phosphate produced per wellaverage, DHEA−Phosphate produced per wellaverage, DMSO)]]. […]

Sequence of SULT2B1b (O00204 whole entry): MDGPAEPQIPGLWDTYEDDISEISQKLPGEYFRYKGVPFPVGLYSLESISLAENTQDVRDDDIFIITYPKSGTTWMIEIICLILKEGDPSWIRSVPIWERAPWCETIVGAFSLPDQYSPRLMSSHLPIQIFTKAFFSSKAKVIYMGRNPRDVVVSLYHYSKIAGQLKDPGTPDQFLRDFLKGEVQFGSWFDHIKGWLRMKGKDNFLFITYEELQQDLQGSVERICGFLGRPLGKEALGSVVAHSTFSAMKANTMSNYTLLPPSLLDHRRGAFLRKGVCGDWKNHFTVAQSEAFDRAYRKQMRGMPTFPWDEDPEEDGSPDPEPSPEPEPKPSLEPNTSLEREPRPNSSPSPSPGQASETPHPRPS

Compound | suitable sub-lethal treatment concentration (MCF-7 cells) [µM] | IC50 (SULT2B1b) [µM] | percent inhibition (SULT2B1b; initial medium throughput screen) [%]
C[C@]12CCC(=O)N(Cc3ccc(Cl)cc3)C1=CC[C@@H]1[C@@H]2C(=O)C[C@]2(C)C(=O)CC[C@@H]12 [Compound 1, (4aR,4bS,6aS,9aS,9bS)-1-(4-chlorobenzyl)-4a,6a-dimethyl-3,4,4a,6,6a,8,9,9a,9b,10-decahydro-1H-indeno[5,4-f]quinoline-2,5,7(4bH)-trione] | 6.25 | 34 ± 4 | 48
C[C@]12CC[C@H](O)CC1=CC[C@@H]1[C@@H]2CC[C@]2(C)C(n3cnc4ccccc43)=CC[C@@H]12 [Compound 2, Galeterone, reference compound] | – | 41 ± 7 | –
C[C@]12CCC(=O)N(Cc3ccc(Br)cc3)C1=CC[C@@H]1[C@@H]2C(=O)C[C@]2(C)C(=O)CC[C@@H]12 [Compound 3, (4aR,4bS,6aS,9aS,9bS)-1-(4-bromobenzyl)-4a,6a-dimethyl-3,4,4a,6,6a,8,9,9a,9b,10-decahydro-1H-indeno[5,4-f]quinoline-2,5,7(4bH)-trione] | 6.25 | – | –
